# pIC50: −log10 of the molar value. Like-named read-outs stand apart in the source and are kept apart here.
# How the values were obtained:
# Assay type in all cases: cell-based
# C. albicans ATCC90028 = assay: Antifungal activity test, MIC by broth microdilution (CLSI M27-A3); details: C. albicans ATCC90028, 35° C., 24-48 hours
# Experimental: (§1) The Minimum Inhibitory Concentration (MIC) values of the present compound against yeast and filamentous fungi were determined by broth microdilution assay according to the Clinical Laboratory Standards Institute (CLSI) guidelines outlined in documents M27-A3 and M38-A2. The medium used in the assay consisted of RPMI1640 (with glutamine, without bicarbonate) with 2% glucose and 0.165 mol/L morpholinepropanesulfonic acid (MOPS) with pH adjusted to 7.0 using 1 mol/L sodium hydroxide. The present compound was dissolved in dimethyl sulfoxide (DMSO). A series of two-fold dilutions were prepared in DMSO, and then 2 μL of the diluted compound was added to each well in 96-well sterile plates. Each inoculum was prepared by diluting a suspension of Candida spp. or a conidia suspension of Aspergillus spp. suspended in sterile saline solution, and then 200 μL was added to each well to a predetermined concentration using RPMI/MOPS (final concentration for each solution: approximately 1×10^3 cells/mL and approximately 1×10^4 CFU/mL). Plates of Candida spp. and Aspergillus spp. were incubated at 35° C. for 24-48 hours. The MIC was defined as the lowest concentration giving 100% inhibition compared to the growth control.
# A. flavus ATCC204304 = assay: Antifungal activity test, MIC by broth microdilution (CLSI M38-A2); details: A. flavus ATCC204304, 35° C., 24-48 hours
# Experimental: as §1
# A. fumigatus ATCC204305 = assay: as above; details: A. fumigatus ATCC204305, 35° C., 24-48 hours
# Experimental: as §1
# [1] = system: red blood cells (5% RBC suspension); assay: Test Example 2-1: in vitro hemolytic activity test (upper limit 50, 80, 100 or 200 μmol/L); details: 5% RBC suspension, 37° C., one hour, read-out: hemolysis IC50
# How it was run: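 A 5% suspension of washed red cells in Earle's medium was exposed to doubling dilutions of compound from DMSO, with maxima of 50, 80, 100 or 200 μmol/L final, for 1 h at 37 °C, 5% CO2. Supernatant absorbance at 540 nm was normalised to water-lysed cells. IC50 is the concentration giving 50% hemolysis; ">" values exceed the top concentration.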
# [2] = broth microdilution, 100% inhibition
# [3] = hemolysis method 50 (upper concentration 50 μmol/L)
# [4] = lowest concentration giving 100% inhibition
MIC (C. albicans ATCC90028; [2]),MIC (A. flavus ATCC204304; [2]),MIC (A. fumigatus ATCC204305; [2]),Compound,further results
0.5 µg/mL,0.5 µg/mL,0.5 µg/mL,C[C@@H]1[C@H](O)[C@@H](C)/C=C/C=C/C=C/C=C/C=C/C=C/C=C/[C@H](O[C@@H]2O[C@H](C)[C@@H](O)[C@H](N)[C@@H]2O)C[C@@H]2O[C@](O)(C[C@@H](O)C[C@@H](O)[C@H](O)CC[C@@H](O)C[C@@H](O)CC(=O)O[C@H]1C)C[C@H](O)[C@H]2NC(=O)NC[C@@H](O)C(=O)O [I-311],"pIC50 [1, 3]: < 4.30"
0.5 µg/mL,0.5 µg/mL,1 µg/mL,C[C@@H]1[C@H](O)[C@@H](C)/C=C/C=C/C=C/C=C/C=C/C=C/C=C/[C@H](O[C@@H]2O[C@H](C)[C@@H](O)[C@H](N)[C@@H]2O)C[C@@H]2O[C@](O)(C[C@@H](O)C[C@@H](O)[C@H](O)CC[C@@H](O)C[C@@H](O)CC(=O)O[C@H]1C)C[C@H](O)[C@H]2NC(=O)NC[C@H](O)C(=O)O [I-259],"pIC50 [1, 3]: < 4.30"
–,–,–,C[C@@H]1[C@H](O)[C@@H](C)/C=C/C=C/C=C/C=C/C=C/C=C/C=C/[C@H](O[C@@H]2O[C@H](C)[C@@H](O)[C@H](N)[C@@H]2O)C[C@@H]2O[C@](O)(C[C@@H](O)C[C@@H](O)[C@H](O)CC[C@@H](O)C[C@@H](O)CC(=O)O[C@H]1C)C[C@H](O)[C@H]2NC(=O)NC(CO)CO [I-40],"MIC (C. albicans ATCC90028; Candida albicans, broth microdilution, 100% inhibition, read-out: MIC): 0.125 µg/mL; MIC (A. flavus ATCC204304; Aspergillus flavus, broth microdilution, 100% inhibition, read-out: MIC): 0.5 µg/mL; MIC (A. fumigatus ATCC204305; Aspergillus fumigatus, broth microdilution, 100% inhibition, read-out: MIC): 0.25 µg/mL; pIC50 ([1]; Erythrocyte, 1 h, hemolysis method 80 (upper concentration 80 μmol/L)): < 4.10"
0.5 µg/mL,0.5 µg/mL,0.5 µg/mL,C[C@@H]1[C@H](O)[C@@H](C)/C=C/C=C/C=C/C=C/C=C/C=C/C=C/[C@H](O[C@@H]2O[C@H](C)[C@@H](O)[C@H](N)[C@@H]2O)C[C@@H]2O[C@](O)(C[C@@H](O)C[C@@H](O)[C@H](O)CC[C@@H](O)C[C@@H](O)CC(=O)O[C@H]1C)C[C@H](O)[C@H]2NC(=O)N(O)CC(=O)O [I-276],–
0.25 µg/mL,0.5 µg/mL,1 µg/mL,C[C@@H]1[C@H](O)[C@@H](C)/C=C/C=C/C=C/C=C/C=C/C=C/C=C/[C@H](O[C@@H]2O[C@H](C)[C@@H](O)[C@H](N)[C@@H]2O)C[C@@H]2O[C@](O)(C[C@@H](O)C[C@@H](O)[C@H](O)CC[C@@H](O)C[C@@H](O)CC(=O)O[C@H]1C)C[C@H](O)[C@H]2NC(=O)NC[C@@H](O)CO [I-119],–
0.25 µg/mL,0.5 µg/mL,1 µg/mL,C[C@@H]1[C@H](O)[C@@H](C)/C=C/C=C/C=C/C=C/C=C/C=C/C=C/[C@H](O[C@@H]2O[C@H](C)[C@@H](O)[C@H](N)[C@@H]2O)C[C@@H]2O[C@](O)(C[C@@H](O)C[C@@H](O)[C@H](O)CC[C@@H](O)C[C@@H](O)CC(=O)O[C@H]1C)C[C@H](O)[C@H]2NC(=O)NCC1CN(C)C1 [I-159],–
0.5 µg/mL,0.5 µg/mL,1 µg/mL,C[C@@H]1[C@H](O)[C@@H](C)/C=C/C=C/C=C/C=C/C=C/C=C/C=C/[C@H](O[C@@H]2O[C@H](C)[C@@H](O)[C@H](N)[C@@H]2O)C[C@@H]2O[C@](O)(C[C@@H](O)C[C@@H](O)[C@H](O)CC[C@@H](O)C[C@@H](O)CC(=O)O[C@H]1C)C[C@H](O)[C@H]2NC(=O)N1CCC1C(=O)O (some centres unmarked) [I-284],"pIC50 [1, 3]: < 4.30"
–,–,–,CONC(=O)N[C@H]1[C@@H]2C[C@@H](O[C@@H]3O[C@H](C)[C@@H](O)[C@H](NC(=N)N)[C@@H]3O)/C=C/C=C/C=C/C=C/C=C/C=C/C=C/[C@H](C)[C@@H](O)[C@@H](C)[C@H](C)OC(=O)C[C@H](O)C[C@H](O)CC[C@@H](O)[C@H](O)C[C@H](O)C[C@](O)(C[C@@H]1O)O2 [I-331],MIC (C. albicans ATCC90028; [4]): 0.25 µg/mL; MIC (A. flavus ATCC204304; [4]): 1 µg/mL; MIC (A. fumigatus ATCC204305; [4]): 1 µg/mL
0.5 µg/mL,0.5 µg/mL,1 µg/mL,C[C@@H]1[C@H](O)[C@@H](C)/C=C/C=C/C=C/C=C/C=C/C=C/C=C/[C@H](O[C@@H]2O[C@H](C)[C@@H](O)[C@H](N)[C@@H]2O)C[C@@H]2O[C@](O)(C[C@@H](O)C[C@@H](O)[C@H](O)CC[C@@H](O)C[C@@H](O)CC(=O)O[C@H]1C)C[C@H](O)[C@H]2NC(=O)NC[C@H](O)CC(=O)O [I-250],"pIC50 [1, 3]: < 4.30"
0.25 µg/mL,1 µg/mL,1 µg/mL,C[C@@H]1[C@H](O)[C@@H](C)/C=C/C=C/C=C/C=C/C=C/C=C/C=C/[C@H](O[C@@H]2O[C@H](C)[C@@H](O)[C@H](N)[C@@H]2O)C[C@@H]2O[C@](O)(C[C@@H](O)C[C@@H](O)[C@H](O)CC[C@@H](O)C[C@@H](O)CC(=O)O[C@H]1C)C[C@H](O)[C@H]2NC(=O)NC[C@H](N)CO [I-162],–
–,–,–,C[C@@H]1[C@H](O)[C@@H](C)/C=C/C=C/C=C/C=C/C=C/C=C/C=C/[C@H](O[C@@H]2O[C@H](C)[C@@H](O)[C@H](NC(=N)NO)[C@@H]2O)C[C@@H]2O[C@](O)(C[C@@H](O)C[C@@H](O)[C@H](O)CC[C@@H](O)C[C@@H](O)CC(=O)O[C@H]1C)C[C@H](O)[C@H]2NC(=O)NNC(=O)[C@H](O)CO [I-380],MIC (C. albicans ATCC90028; [4]): 0.5 µg/mL; MIC (A. flavus ATCC204304; [4]): 0.5 µg/mL; MIC (A. fumigatus ATCC204305; [4]): 1 µg/mL
0.25 µg/mL,0.5 µg/mL,1 µg/mL,C[C@@H]1[C@H](O)[C@@H](C)/C=C/C=C/C=C/C=C/C=C/C=C/C=C/[C@H](O[C@@H]2O[C@H](C)[C@@H](O)[C@H](N)[C@@H]2O)C[C@@H]2O[C@](O)(C[C@@H](O)C[C@@H](O)[C@H](O)CC[C@@H](O)C[C@@H](O)CC(=O)O[C@H]1C)C[C@H](O)[C@H]2NC(=O)N1CC(O)C1 [I-166],–
0.25 µg/mL,1 µg/mL,1 µg/mL,C[C@@H]1[C@H](O)[C@@H](C)/C=C/C=C/C=C/C=C/C=C/C=C/C=C/[C@H](O[C@@H]2O[C@H](C)[C@@H](O)[C@H](N)[C@@H]2O)C[C@@H]2O[C@](O)(C[C@@H](O)C[C@@H](O)[C@H](O)CC[C@@H](O)C[C@@H](O)CC(=O)O[C@H]1C)C[C@H](O)[C@H]2NC(=O)NC1CN(CCO)C1 [I-165],–
0.5 µg/mL,0.5 µg/mL,0.5 µg/mL,C[C@@H]1[C@H](O)[C@@H](C)/C=C/C=C/C=C/C=C/C=C/C=C/C=C/[C@H](O[C@@H]2O[C@H](C)[C@@H](O)[C@H](N)[C@@H]2O)C[C@@H]2O[C@](O)(C[C@@H](O)C[C@@H](O)[C@H](O)CC[C@@H](O)C[C@@H](O)CC(=O)O[C@H]1C)C[C@H](O)[C@H]2NC(=O)N(O)CCO [I-274],–
0.25 µg/mL,1 µg/mL,1 µg/mL,C[C@@H]1[C@H](O)[C@@H](C)/C=C/C=C/C=C/C=C/C=C/C=C/C=C/[C@H](O[C@@H]2O[C@H](C)[C@@H](O)[C@H](N)[C@@H]2O)C[C@@H]2O[C@](O)(C[C@@H](O)C[C@@H](O)[C@H](O)CC[C@@H](O)C[C@@H](O)CC(=O)O[C@H]1C)C[C@H](O)[C@H]2NC(=O)NCCNC(=N)N [I-67],–
0.25 µg/mL,0.5 µg/mL,0.5 µg/mL,C[C@@H]1[C@H](O)[C@@H](C)/C=C/C=C/C=C/C=C/C=C/C=C/C=C/[C@H](O[C@@H]2O[C@H](C)[C@@H](O)[C@H](N)[C@@H]2O)C[C@@H]2O[C@](O)(C[C@@H](O)C[C@@H](O)[C@H](O)CC[C@@H](O)C[C@@H](O)CC(=O)O[C@H]1C)C[C@H](O)[C@H]2NC(=O)NCC(N)=O [I-90],–
–,–,–,C[C@@H]1[C@H](O)[C@@H](C)/C=C/C=C/C=C/C=C/C=C/C=C/C=C/[C@H](O[C@@H]2O[C@H](C)[C@@H](O)[C@H](NC(=O)CN(C)C)[C@@H]2O)C[C@@H]2O[C@](O)(C[C@@H](O)C[C@@H](O)[C@H](O)CC[C@@H](O)C[C@@H](O)CC(=O)O[C@H]1C)C[C@H](O)[C@H]2NC(=O)NNC(N)=O [I-326],MIC (C. albicans ATCC90028; [4]): 0.25 µg/mL; MIC (A. flavus ATCC204304; [4]): 1 µg/mL; MIC (A. fumigatus ATCC204305; [4]): 1 µg/mL

# — patent publication US10696707B2, “Polyene macrolide derivative” (Shionogi & Co., Ltd., priority 2014, dated 2020)
